Laboratory results published in ChEMBL document CHEMBL1147164, “Synthesis, stereochemistry and antimicrobial evaluation of some N-morpholinoacetyl-2,6-diarylpiperidin-4-ones” (2007).
≈ marks a conversion by molar mass, not a printed value. Calls of active or inactive are those of the source. The calls are words filed in the database; no cut-off is given here.

Experiments:
[1] = test system: Aspergillus niger; assay: Antifungal activity against Aspergillus niger after 72 to 96 hrs by twofold serial dilution method; type: functional
[2] = test system: Candida albicans; assay: Antifungal activity against Candida albicans after 72 to 96 hrs by twofold serial dilution method; type: functional
[3] = test system: Rhizopus; assay: Antifungal activity against Rhizopus sp. after 72 to 96 hrs by twofold serial dilution method; type: functional
[4] = test system: Aspergillus flavus; assay: Antifungal activity against Aspergillus flavus after 72 to 96 hrs by twofold serial dilution method; type: functional
[5] = test system: Staphylococcus aureus; assay: Antibacterial activity against Staphylococcus aureus after 24 hrs by twofold serial dilution method; type: functional
[6] = test system: Salmonella typhi; assay: Antibacterial activity against Salmonella typhi at 200 ug/ml after 24 hrs by twofold serial dilution method; type: functional, organism-based; conditions: Salmonella enterica subsp. enterica serovar Typhi
[7] = test system: Escherichia coli; assay: Antibacterial activity against Escherichia coli after 24 hrs by twofold serial dilution method; type: functional
[8] = test system: Pseudomonas aeruginosa; assay: Antibacterial activity against Pseudomonas aeruginosa after 24 hrs by twofold serial dilution method; type: functional
[9] = test system: Candida albicans; assay: Antifungal activity against Candida albicans at 200 ug/ml after 72 to 96 hrs by twofold serial dilution method; type: functional, organism-based
[10] = test system: Escherichia coli; assay: Antibacterial activity against Escherichia coli at 200 ug/ml after 24 hrs by twofold serial dilution method; type: functional, organism-based
[11] = test system: Aspergillus flavus; assay: Antifungal activity against Aspergillus flavus at 200 ug/ml after 72 to 96 hrs by twofold serial dilution method; type: functional, organism-based
[12] = test system: Salmonella typhi; assay: Antibacterial activity against Salmonella typhi after 24 hrs by twofold serial dilution method; type: functional, Salmonella enterica subsp. enterica serovar Typhi; conditions: Salmonella enterica

C[C@@H]1[C@H](O)[C@@H](C)/C=C/C=C/C=C/C=C/C=C/C=C/C=C/[C@H](O[C@@H]2O[C@H](C)[C@@H](O)[C@H](N)[C@@H]2O)C[C@@H]2O[C@](O)(C[C@@H](O)C[C@@H](O)[C@H](O)CC[C@@H](O)C[C@@H](O)CC(=O)O[C@H]1C)C[C@H](O)[C@H]2C(=O)O [AMPHOTERICIN B] was tested, and the MIC [1] was 50 µg/mL (≈ 54.1 µM), the MIC [2] was 25 µg/mL (≈ 27.1 µM) and the MIC [3] was 25 µg/mL (≈ 27.1 µM). For the same compound, the MIC [4] was 50 µg/mL (≈ 54.1 µM).
For CC1C(=O)CC(c2ccccc2)N(C(=O)CN2CCOCC2)C1c1ccccc1 (stereo not drawn), the MIC [5] was 200 µg/mL (≈ 510 µM), the Activity [6] was “inactive” and the MIC [7] was 100 µg/mL (≈ 255 µM). It also gave an MIC [8] of 50 µg/mL (≈ 127 µM), an MIC [1] of 50 µg/mL (≈ 127 µM) and an MIC [3] of 100 µg/mL (≈ 255 µM). For the same compound, the MIC [4] was 50 µg/mL (≈ 127 µM) and the Activity [9] was “inactive”.
Compound O=C1CC(c2ccccc2)N(C(=O)CN2CCOCC2)C(c2ccccc2)C1 (stereo not drawn) has an MIC [5] of 200 µg/mL (≈ 528 µM), an MIC [8] of 100 µg/mL (≈ 264 µM) and an MIC [1] of 200 µg/mL (≈ 528 µM). The Activity [10] was “inactive”, the MIC [3] was 100 µg/mL (≈ 264 µM) and the Activity [11] was “inactive”. For the same compound, the Activity [9] was “inactive” and the MIC [12] was 100 µg/mL (≈ 264 µM).
For Cc1ccc(C2C(C)C(=O)C(C)C(c3ccc(C)cc3)N2C(=O)CN2CCOCC2)cc1 (stereo not drawn), the MIC [5] was 50 µg/mL (≈ 115 µM), the MIC [7] was 25 µg/mL (≈ 57.5 µM) and the MIC [8] was 6.25 µg/mL (≈ 14.4 µM). It also gave an MIC [1] of 50 µg/mL (≈ 115 µM), an MIC [2] of 50 µg/mL (≈ 115 µM) and an MIC [3] of 25 µg/mL (≈ 57.5 µM). It also gave an MIC [4] of 25 µg/mL (≈ 57.5 µM) and an MIC [12] of 6.25 µg/mL (≈ 14.4 µM).
CC1C(=O)C(C)C(c2ccc(Cl)cc2)N(C(=O)CN2CCOCC2)C1c1ccc(Cl)cc1 (stereo not drawn) was tested, and the MIC [5] was 25 µg/mL (≈ 52.6 µM), the MIC [7] was 25 µg/mL (≈ 52.6 µM) and the MIC [8] was 50 µg/mL (≈ 105 µM). The MIC [1] was 25 µg/mL (≈ 52.6 µM), the MIC [2] was 6.25 µg/mL (≈ 13.1 µM) and the MIC [3] was 25 µg/mL (≈ 52.6 µM). It also gave an MIC [4] of 6.25 µg/mL (≈ 13.1 µM) and an MIC [12] of 100 µg/mL (≈ 210 µM).
O=C(O)c1cn(C2CC2)c2cc(N3CCNCC3)c(F)cc2c1=O [CIPROFLOXACIN] showed an MIC [7] of 25 µg/mL (≈ 75.4 µM) and an MIC [12] of 50 µg/mL (≈ 151 µM).
CC1C(=O)C(C)C(c2ccccc2)N(C(=O)CN2CCOCC2)C1c1ccccc1 (stereo not drawn) was tested, and the MIC [5] was 50 µg/mL (≈ 123 µM), the MIC [7] was 100 µg/mL (≈ 246 µM) and the MIC [8] was 25 µg/mL (≈ 61.5 µM). For the same compound, the MIC [1] was 25 µg/mL (≈ 61.5 µM), the MIC [2] was 50 µg/mL (≈ 123 µM) and the MIC [3] was 12.5 µg/mL (≈ 30.7 µM). For the same compound, the MIC [4] was 50 µg/mL (≈ 123 µM) and the MIC [12] was 50 µg/mL (≈ 123 µM).
For CCC1C(=O)CC(c2ccccc2)N(C(=O)CN2CCOCC2)C1c1ccccc1 (stereo not drawn), the MIC [5] was 50 µg/mL (≈ 123 µM), the MIC [7] was 50 µg/mL (≈ 123 µM) and the MIC [8] was 25 µg/mL (≈ 61.5 µM). It also gave an MIC [1] of 100 µg/mL (≈ 246 µM), an MIC [2] of 100 µg/mL (≈ 246 µM) and an MIC [3] of 200 µg/mL (≈ 492 µM). For the same compound, the MIC [4] was 100 µg/mL (≈ 246 µM) and the MIC [12] was 100 µg/mL (≈ 246 µM).
In the case of COc1ccc(C2CC(=O)C(C)C(c3ccc(OC)cc3)N2C(=O)CN2CCOCC2)cc1 (stereo not drawn), the MIC [5] is reported as 50 µg/mL (≈ 110 µM), the MIC [7] is reported as 100 µg/mL (≈ 221 µM) and the MIC [8] is reported as 25 µg/mL (≈ 55.2 µM). It also gave an MIC [1] of 50 µg/mL (≈ 110 µM), an MIC [2] of 25 µg/mL (≈ 55.2 µM) and an MIC [3] of 6.25 µg/mL (≈ 13.8 µM). It also gave an MIC [4] of 12.5 µg/mL (≈ 27.6 µM) and an MIC [12] of 50 µg/mL (≈ 110 µM).
For CC(C)C1C(=O)CC(c2ccccc2)N(C(=O)CN2CCOCC2)C1c1ccccc1 (stereo not drawn), the MIC [5] was 100 µg/mL (≈ 238 µM), the MIC [7] was 100 µg/mL (≈ 238 µM) and the MIC [8] was 50 µg/mL (≈ 119 µM). It also gave an MIC [1] of 50 µg/mL (≈ 119 µM), an MIC [2] of 50 µg/mL (≈ 119 µM) and an MIC [3] of 25 µg/mL (≈ 59.4 µM). For the same compound, the MIC [4] was 100 µg/mL (≈ 238 µM) and the MIC [12] was 200 µg/mL (≈ 476 µM).
For COc1ccc(C2C(C)C(=O)C(C)C(c3ccc(OC)cc3)N2C(=O)CN2CCOCC2)cc1 (stereo not drawn), the MIC [5] was 6.25 µg/mL (≈ 13.4 µM), the MIC [7] was 12.5 µg/mL (≈ 26.8 µM) and the MIC [8] was 12.5 µg/mL (≈ 26.8 µM). For the same compound, the MIC [1] was 50 µg/mL (≈ 107 µM), the MIC [2] was 100 µg/mL (≈ 214 µM) and the MIC [3] was 50 µg/mL (≈ 107 µM). It also gave an MIC [4] of 100 µg/mL (≈ 214 µM) and an MIC [12] of 25 µg/mL (≈ 53.6 µM).
